Patent publication EP4603105A1, “PHARMACEUTICAL COMPOSITION CONTAINING CYCLIC COMPOUND HAVING SELECTIVE KRAS INHIBITORY EFFECT AGAINST HRAS AND NRAS” (CHUGAI SEIYAKU KABUSHIKI KAISHA, priority 2022, dated 2024)
*1 amine or outer side, *2 acyl side, *3 side chain or, on linkers, in order; H or OH if unused. Where a SMILES comes first, the peptide text is derived from it. Bridges are numbered along the chain shown (N, C = ends). [ ]: non-standard residue; d: D form. The star is where a group is joined. hPhe(3,5-F2-4-CF3) = N[C@@H](CCc1cc(F)c(C(F)(F)F)c(F)c1)C(=O)O; hPhe(3-Cl-4-CF3) = N[C@@H](CCc1ccc(C(F)(F)F)c(Cl)c1)C(=O)O; NPrPhe(4-CF3) = CCCN[C@@H](Cc1ccc(C(F)(F)F)cc1)C(=O)O; NEtPhe(4-CF3) = CCN[C@@H](Cc1ccc(C(F)(F)F)cc1)C(=O)O; X16 = O=C([C@@H](N[*:1])C1CC(F)(F)C1)[*:2]; NMeGly(cPent) = CN[C@H](C(=O)O)C1CCCC1; Hyp = O=C(O)[C@@H]1C[C@@H](O)CN1; NMeD = CN[C@@H](CC(=O)O)C(=O)O; NMeL = CN[C@@H](CC(C)C)C(=O)O; Azetidin(1-yl) = C1CN(*)C1; Morpholide = C1CN(*)CCO1; NMeA = CN[C@@H](C)C(=O)O; Ac5c = NC1(C(=O)O)CCCC1; Aze = O=C(O)[C@@H]1CCN1; Sar = CNCC(=O)O

Key:
[1] = biological target: GDP-bound NRAS wild-type protein (Homo sapiens, UniProt P01111); test: Binding to NRAS by surface plasmon resonance (SPR), KD and KD ratio to KRAS
Summary of the method: (§1)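 Recombinant RAS proteins bearing a biotinylated Avi tag and loaded with GDP served as the captured ligand, recaptured fresh every cycle. Binding responses were referenced to an uncoated surface and a buffer-only blank cycle. Dissociation constants were obtained by 1:1 model fitting at 30°C.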

HRAS wild-type protein = HRAS wild-type protein (Homo sapiens, UniProt P01112); test: Binding to HRAS by surface plasmon resonance (SPR), KD and KD ratio to KRAS
Summary of the method: as §1

[2] = system: human lung cancer strain NCI-H441; format: cell-based
Summary of the method: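 Signal came from […] measured per well once the reagent was added. Beforehand, cells were cultured at 37°C and 5% carbon dioxide on a compound series serially diluted in dimethyl sulfoxide.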

[3] = ratio of the KD value with respect to GDP-bound NRAS wild-type protein to the KD value with respect to KRAS
[4] = ratio of the KD value with respect to HRAS wild-type protein to the KD value with respect to KRAS
[5] = ratio of KD for GDP-bound NRAS wild-type protein to KD for KRAS
[6] = ratio of KD for HRAS wild-type protein to KD for KRAS
[7] = ratio of KD value for GDP-bound NRAS wild-type protein to KD value for KRAS (SPR)
[8] = ratio of KD value for HRAS wild-type protein to KD value for KRAS (SPR)

Sequence of GDP-bound NRAS wild-type protein (P01111 whole entry): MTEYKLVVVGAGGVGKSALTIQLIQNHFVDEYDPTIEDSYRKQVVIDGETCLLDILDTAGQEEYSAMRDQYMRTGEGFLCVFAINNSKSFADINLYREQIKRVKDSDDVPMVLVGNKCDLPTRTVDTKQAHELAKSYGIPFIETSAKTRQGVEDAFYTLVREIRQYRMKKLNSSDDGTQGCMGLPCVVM
Sequence of HRAS wild-type protein (P01112 whole entry): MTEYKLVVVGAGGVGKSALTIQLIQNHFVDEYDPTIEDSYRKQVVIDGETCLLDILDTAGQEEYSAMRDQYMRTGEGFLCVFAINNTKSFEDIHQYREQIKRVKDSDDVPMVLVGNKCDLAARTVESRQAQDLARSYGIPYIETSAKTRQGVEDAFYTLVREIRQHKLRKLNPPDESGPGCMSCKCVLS

SMILES	NRAS /KRAS [1, 3]	HRAS /KRAS (HRAS wild-type protein; [4])	IC50 [2]	NRAS /KRAS [1, 5]	HRAS /KRAS (HRAS wild-type protein; [6])	NRAS /KRAS [1, 7]	HRAS /KRAS (HRAS wild-type protein; [8])
C=CCN1CC(=O)N(C)[C@H]2C/C=C\CCN(C2=O)[C@@H](Cc2ccc(C(F)(F)F)cc2)C(=O)N(C)CC(=O)N[C@@H](CCc2ccc(C(F)(F)F)c(OC)c2)C(=O)N2C[C@H](OCC)C[C@H]2C(=O)NC2(CC(C)(C)C2)C(=O)N(C)[C@@H](C2CCCC2)C(=O)N(C)[C@H](C(=O)N(C)C)CC(=O)N(C)[C@@H](CCC)C(=O)N[C@@H]([C@@H](C)CC)C1=O [PP2106]	A (a compound having 10 or more and less than 20 is denoted as A)	A (a compound having 10 or more and less than 20 is denoted as A)	6.1 nM				
CCCN1C(=O)CN(C)C(=O)CN(C)C(=O)[C@H](C2CC(F)(F)C2)NC(=O)[C@H](CC(C)C)N(C)C(=O)C[C@@H](C(=O)N(C)C)N(C)C(=O)[C@H](C2CCCC2)N(C)C(=O)C2(CCCC2)NC(=O)[C@@H]2CCCN2C(=O)[C@H](CCc2cc(F)c(C(F)(F)F)c(F)c2)NC(=O)CN(C)C(=O)[C@@H]1Cc1ccc(C(F)(F)F)cc1 [PP0748] ([NMeL][X16][Sar][Sar][NPrPhe(4-CF3)][Sar][hPhe(3,5-F2-4-CF3)]P[Ac5c][NMeGly(cPent)][NMeD]-NMe2; lactam N-11)	B (a compound having 3 or more and less than 10 is denoted as B)	B (a compound having 3 or more and less than 10 is denoted as B)	10.7 nM				
CCC[C@H]1C(=O)N[C@@H]([C@@H](C)CC)C(=O)N(C)CC(=O)N(C)[C@H]2C/C=C\CCN(C2=O)[C@@H](Cc2ccc(C(F)(F)F)cc2)C(=O)N(C)CC(=O)N[C@@H](CCc2ccc(Cl)c(OC)c2)C(=O)N2C[C@H](OCC)C[C@H]2C(=O)NC2(CC(C)(C)C2)C(=O)N(C)[C@@H](C2CCCC2)C(=O)N(C)[C@H](C(=O)N(C)C)CC(=O)N1C [PP2788]			24.4 nM	A (a compound having 10 or more and less than 20 is denoted as A)	A (a compound having 10 or more and less than 20 is denoted as A)		
CCC[C@H]1C(=O)N[C@@H]([C@@H](C)CC)C(=O)N(C)CC(=O)N(C)[C@H]2C/C=C\CCN(C2=O)[C@@H](Cc2ccc(C(F)(F)F)cc2)C(=O)N(C)CC(=O)N[C@@H](CCc2ccc(Cl)c(Cl)c2)C(=O)N2CCCCC[C@H]2C(=O)NC2(CC(C)(C)C2)C(=O)N(C)[C@@H](C(CC)CC)C(=O)N(C)[C@H](C(=O)N(C)C)CC(=O)N1C [PP3031]			94.2 nM	AA (a compound having 20 or more is denoted as AA)	A (a compound having 10 or more and less than 20 is denoted as A)		
CCC[C@H]1C(=O)N[C@@H]([C@@H](C)CC)C(=O)N(C)CC(=O)N(C)[C@H]2C/C=C\CCN(C2=O)[C@@H](Cc2ccc(C(F)(F)F)cc2)C(=O)N(C)CC(=O)N[C@@H](CCc2cc(F)c(C(F)(F)F)c(F)c2)C(=O)N2C[C@H](OCC)C[C@H]2C(=O)NC2(CC(F)(F)C2)C(=O)N(C)[C@@H](C2CCCC2)C(=O)N(C)[C@H](C(=O)N(C)CC)CC(=O)N1C [PP1735]			2.2 nM			AA (a compound having 20 or more is denoted as AA)	A (a compound having 10 or more and less than 20 is denoted as A)
CCOC[C@H]1C(=O)N[C@@H]([C@@H](C)CC)C(=O)N(C)CC(=O)N(C)[C@H]2C/C=C\CCN(C2=O)[C@@H](Cc2ccc(C(F)(F)F)cc2)C(=O)N(C)CC(=O)N[C@@H](CCc2cc(F)c(C(F)(F)F)c(F)c2)C(=O)N2C[C@@H](C)C[C@H]2C(=O)NC2(CC(C)(C)C2)C(=O)N(C)[C@@H](C2CCCC2)C(=O)N(C)[C@H](C(=O)N(C)CC)CC(=O)N1C [PP2042]	A (a compound having 10 or more and less than 20 is denoted as A)	A (a compound having 10 or more and less than 20 is denoted as A)	5.9 nM				
CCC[C@@H]1C[C@H]2C(=O)NC3(CC(C)(C)C3)C(=O)N(C)[C@@H](C3CCCC3)C(=O)N(C)[C@H](C(=O)N(C)C)CC(=O)N(C)[C@@H](CC)C(=O)N[C@@H]([C@@H](C)CC)C(=O)N(C)CC(=O)N(C)[C@H]3C/C=C\CCN(C3=O)[C@@H](Cc3ccc(C)cc3)C(=O)N(C)CC(=O)N[C@@H](CCc3cc(F)c(C(F)(F)F)c(F)c3)C(=O)N2C1 [PP2208]	A (a compound having 10 or more and less than 20 is denoted as A)	A (a compound having 10 or more and less than 20 is denoted as A)	17.8 nM				
CCCN(C)C(=O)[C@@H]1CC(=O)N(C)[C@@H](CC)C(=O)N[C@@H]([C@@H](C)CC)C(=O)N(C)CC(=O)N(C)[C@H]2C/C=C\CCN(C2=O)[C@@H](Cc2ccc(C(F)(F)F)cc2)C(=O)N(C)CC(=O)N[C@@H](CCc2cc(F)c(C(F)(F)F)c(F)c2)C(=O)N2C[C@H](OCC)C[C@H]2C(=O)NC2(CC(F)(F)C2)C(=O)N(C)[C@@H](C2CCCC2)C(=O)N1C [PP1732]			6.4 nM			AA (a compound having 20 or more is denoted as AA)	A (a compound having 10 or more and less than 20 is denoted as A)
CCCN1C(=O)CN(C)C(=O)[C@@H]2CCN2C(=O)[C@H]([C@@H](C)CC)NC(=O)[C@H](CC(C)C)N(C)C(=O)C[C@@H](C(=O)N(C)C)NC(=O)[C@H](C2CCCC2)N(C)C(=O)C2(CCCC2)NC(=O)[C@@H]2C[C@@H](OCC)CN2C(=O)[C@H](CCc2ccc(C(F)(F)F)c(Cl)c2)NC(=O)CN(C)C(=O)[C@@H]1Cc1ccc(C(F)(F)F)cc1 [PP0377] ([NMeL]I[Aze][Sar][NPrPhe(4-CF3)][Sar][hPhe(3-Cl-4-CF3)][Hyp](Et)[Ac5c][NMeGly(cPent)]D-NMe2; lactam N-11)			33.4 nM	B (a compound having 3 or more and less than 10 is denoted as B)	C (A compound having a KD ratio of 0.1 or more and less than 3 is denoted as C)		
CC[C@H](C)[C@@H]1NC(=O)[C@H](CC2CC2)N(C)C(=O)C[C@@H](C(=O)N(C)C)N(C)C(=O)[C@H](C2CCCC2)N(C)C(=O)C2(CCC2)N(C)C(=O)[C@@H]2CCCN2C(=O)[C@H](CCc2cc(F)c(C(F)(F)F)c(F)c2)NC(=O)CN(C)C(=O)[C@H](Cc2ccc(C)cc2)N2CC/C=C\C[C@@H](C2=O)N(C)C(=O)[C@@H]2CCCN2C1=O [PP1798]			7.8 nM			A (a compound having 10 or more and less than 20 is denoted as A)	B (a compound having 3 or more and less than 10 is denoted as B)
CC[C@H](C)[C@@H]1NC(=O)[C@H](CC(C)C)N(C)C(=O)C[C@@H](C(=O)N2CCOCC2)N(C)C(=O)[C@H](C2CCCC2)N(C)C(=O)C2(CCC2)NC(=O)[C@@H]2CCCN2C(=O)[C@H](CCc2cc(F)c(C(F)(F)F)c(F)c2)NC(=O)CN(C)C(=O)[C@H](Cc2ccc(C(F)(F)F)cc2)N2CCCC[C@@H](C2=O)N(C)C(=O)CN(C)C1=O [PP0560]	B (a compound having 3 or more and less than 10 is denoted as B)	B (a compound having 3 or more and less than 10 is denoted as B)	5.2 nM				
CC[C@H](C)[C@@H]1NC(=O)[C@H](CC(C)C)N(C)C(=O)C[C@@H](C(=O)N2CCOCC2)N(C)C(=O)[C@H](C2CCCC2)N(C)C(=O)C2(CCCC2)NC(=O)[C@@H]2CCCN2C(=O)[C@H](CCc2ccc(C(F)(F)F)c(Cl)c2)NC(=O)CN(C)C(=O)[C@H](Cc2ccc(C(F)(F)F)cc2)N(CC)C(=O)CN(C)C(=O)CN(C)C1=O [PP0023] ([NMeL]I[Sar][Sar][NEtPhe(4-CF3)][Sar][hPhe(3-Cl-4-CF3)]P[Ac5c][NMeGly(cPent)][NMeD]-Morpholide; lactam N-11)			4.5 nM	B (a compound having 3 or more and less than 10 is denoted as B)	C (A compound having a KD ratio of 0.1 or more and less than 3 is denoted as C)		
CCCN1C(=O)[C@@H]2CCN2C(=O)[C@H](C)N(C)C(=O)[C@H]([C@@H](C)CC)NC(=O)[C@H](CC(C)C)N(C)C(=O)C[C@@H](C(=O)N2CCC2)N(C)C(=O)[C@H](C2CCCC2)N(C)C(=O)C2(CCCC2)NC(=O)[C@@H]2CCCN2C(=O)[C@H](CCc2ccc(C(F)(F)F)c(Cl)c2)NC(=O)CN(C)C(=O)[C@@H]1Cc1ccc(C(F)(F)F)cc1 [PP0181] ([NMeL]I[NMeA][Aze][NPrPhe(4-CF3)][Sar][hPhe(3-Cl-4-CF3)]P[Ac5c][NMeGly(cPent)][NMeD]-{Azetidin(1-yl)}; lactam N-11)			1.5 nM	C (A compound having a KD ratio of 0.1 or more and less than 3 is denoted as C)	B (a compound having 3 or more and less than 10 is denoted as B)		
CC[C@H](C)[C@@H]1NC(=O)[C@H](CC(C)C)N(C)C(=O)C[C@@H](C(=O)N2CCOCC2)N(C)C(=O)[C@H](C2CCCC2)N(C)C(=O)C2(CCC2)NC(=O)[C@@H]2C[C@@H](OCC(F)F)CN2C(=O)[C@H](CCc2cc(F)c(C(F)(F)F)c(F)c2)NC(=O)CN(C)C(=O)[C@H](Cc2ccc(C(F)(F)F)cc2)N2CCCC[C@@H](C2=O)N(C)C(=O)CN(C)C1=O [PP1002]			2.1 nM	B (a compound having 3 or more and less than 10 is denoted as B)	B (a compound having 3 or more and less than 10 is denoted as B)		
CCO[C@@H]1C[C@H]2C(=O)NC3(CC(C)(C)C3)C(=O)N(C)[C@@H](C3CCCC3)C(=O)N(C)[C@H](C(=O)N(C)C)CC(=O)N(C)[C@@H](CC3CCC3)C(=O)N[C@@H]([C@@H](C)CC)C(=O)N(C)CC(=O)N(C)[C@H]3C/C=C\CCN(C3=O)[C@@H](Cc3ccc(C(F)(F)F)cc3)C(=O)N(C)CC(=O)N[C@@H](CCc3cc(F)c(Cl)c(F)c3)C(=O)N2C1 [PP1762]			8.4 nM			A (a compound having 10 or more and less than 20 is denoted as A)	A (a compound having 10 or more and less than 20 is denoted as A)
